pIC50: −log10 of the molar value.
Tests used:
[1] = target: T1, FGF-R1 (Homo sapiens, UniProt P11362, C488A/C584S/L457V); experiment: Fibroblast Growth Factor (FGF-R) spectrophotometric assay; format: biochemical; conditions: 1 μM compound; read-out: FGF-P % inhibit @1 μM
T1 construct: starting from the endogenous methionine residue 456 to glutamate 766; made in house; host or cells: baculovirus vector expression system
Text: The intracellular kinase domain of human FGF-R1 was expressed using the baculovirus vector expression system starting from the endogenous methionine residue 456 to glutamate 766, according to the residue numbering system of Mohammadi et al., Mol. Cell. Biol., 16, 977–989 (1996). In addition, the construct also has the following 3 amino acid substitutions: L457V, C488A, and C584S.
(§1) The production of ADP from ATP that accompanies phosphoryl transfer was coupled to oxidation of NADH using phosphoenolpyruvate (PEP) and a system having pyruvate kinase (PK) and lactic dehydrogenase (LDH). The oxidation of NADH was monitored by following the decrease of absorbance at 340 nm (e340=6.22 cm^−1 mM^−1) using a Beckman DU 650 spectrophotometer. Assay conditions for phosphorylated VEGF-R2A50 (indicated as FLVK-P in the tables below) were the following: 1 mM PEP; 250 μM NADH; 50 units of LDH/mL; 20 units of PK/mL; 5 mM DTT; 5.1 mM poly(E4Y1); 1 mM ATP; and 25 mM MgCl2 in 200 mM HEPES, pH 7.5. Assay conditions for unphosphorylated VEGF-R2Δ50 (indicated as FLVK in the tables) were the following: 1 mM PEP; 250 μM NADH; 50 units of LDH/mL; 20 units of PK/mL; 5 mM DTT; […]; 3 mM ATP; and 60 mM MgCl2 and 2 mM MnCl2 in 200 mM HEPES, pH 7.5. Assays were initiated with 5 to 40 nM of enzyme. Ki values were determined by measuring enzyme activity in the presence of varying concentrations of test compounds. The data were analyzed using Enzyme Kinetic and Kaleidagraph software.
The spectrophotometric assay was carried out as described above for VEGF-R2, except for the following changes in concentration: FGF-R=50 nM, ATP=2 mM, and poly(E4Y1)=15 mM.

[2] = target: T2, PDGFRβ (Homo sapiens, UniProt P09619); experiment: PAE-PDGFRβ Phosphorylation in PAE-PDGFRB Cells Assay; format: cell-based; conditions: PAE cells overexpressing human PDGFRβ; read-out: PAE PDGFR autophos IC50
T2 construct: expressed in transfected cells; host or cells: porcine aorta endothelial (PAE) cells
Procedure: This assay determines the ability of a test compound to inhibit the autophosphorylation of PDGFRβ in porcine aorta endothelial (PAE)-PDGFRβ cells. PAE cells that overexpress human PDGFRβ were used in this assay. The cells were cultured in Ham's F12 media supplemented with 10% fetal bovine serum (FBS) and 400 ug/ml G418. Twenty thousands cells were seeded in each well of a 96-well plate in 50 μL of growth media and allowed to attach for 6 hours at 37° C. Cells were then exposed to the starvation media (Ham's F12 media supplemented with 0.1% FBS) for 16 hours. After the starvation period was over, 10 μL of test agent in 5% DMSO in starvation media were added to the test wells and 10 μL of the vehicle (5% DMSO in starvation media) were added into the control wells. The final DMSO concentration in each well was 0.5%. Plates were incubated at 37° C. for 1 hour and the cells were then stimulated with 1 μg/mL PDGF-BB (R & D System) in the presence of 2 mM Na3VO4 for 8 minutes. The cells were washed once with 1 mm Na3VO4 in HBSS and lysed by adding 50 μL per well of lysis buffer. One hundred μL of dilution buffer were then added to each well and the diluted cell lysate was transferred to a 96-well goat ant-rabbit coated plate (Pierce), which was pre-coated with Rabbit anti Human PDGFRβ antibody (Santa Cruz). The plates were incubated at room temperature for 2 hours and washed seven times with 1% Tween 20 in PBS. HRP-PY20 (Santa Cruz) was diluted and added to the plate for a 30-minute incubation. Plates were then washed again and TMB peroxidase substrate (Kirkegaard & Perry) was added for a 10-minute incubation. One hundred μL of 0.09 N H2SO4 was added into each well of the 96-well plate to stop the reaction. Phosphorylation status was assessed by spectrophotometer reading at 450 nm. IC50 values were calculated by curve fitting using a four-parameter analysis.

[3] = target: T3, unphosphorylated VEGF-R2Δ50 (Homo sapiens, UniProt P35968, DEL940-989/E990V); experiment: VEGF-R2 coupled spectrophotometric assay, unphosphorylated construct (FLVK); format: biochemical; conditions: % inhibition at 50 nM compound; read-out: FLVK Ki % inh @ 50 nM
T3 construct: VEGF-R2Δ50 contains residues 806–939 and 990–1171; made in house; host or cells: baculovirus/insect cell system
Text: This construct determines the ability of a test compound to inhibit tyrosine kinase activity. A construct (VEGF-R2Δ50) of the cytosolic domain of human vascular endothelial growth factor receptor 2 (VEGF-R2) lacking the 50 central residues of the 68 residues of the kinase insert domain was expressed in a baculovirus/insect cell system. Of the 1356 residues of full-length VEGF-R2, VEGF-R2Δ50 contains residues 806–939 and 990–1171, and also one point mutation (E99OV) within the kinase insert domain relative to wild-type VEGF-R2. Autophosphorylation of the purified construct was performed by incubation of the enzyme at a concentration of 4 μM in the presence of 3 mM ATP and 40 mM MgCl2 in 100 mM HEPES, pH 7.5, containing 5% glycerol and 5 mM DTT, at 4° C. for 2 h. […] See Parast et al., Biochemistry, 37,16788–16801 (1998).
as §1

[4] = tested on: human umbilical vein endothelial cells (HUVEC); experiment: HUVEC Proliferation Assay (VEGF-stimulated); format: cell-based
Procedure: This assay determines the ability of a test compound to inhibit the growth factor-stimulated proliferation of human umbilical vein endothelial cells (“HUVEC”). HUVEC cells (passage 3–4, Clonetics, Corp.) were thawed into EGM2 culture medium (Clonetics Corp) in T75 flasks. Fresh EGM2 medium was added to the flasks 24 hours later. Four or five days later, cells were exposed to another culture medium (F12K medium supplemented with 10% fetal bovine serum (FBS), 60 μg/mL endothelial cell growth supplement (ECGS), and 0.1 mg/mL heparin). Exponentially-growing HUVEC cells were used in experiments thereafter. Ten to twelve thousand HUVEC cells were plated in 96-well dishes in 100 μl of rich, culture medium (described above). The cells were allowed to attach for 24 hours in this medium. The medium was then removed by aspiration and 105 μl of starvation media (F12K+1% FBS) was added to each well. After 24 hours, 15 μl of test agent dissolved in 1% DMSO in starvation medium or this vehicle alone was added into each treatment well; the final DMSO concentration was 0.1%. One hour later, 30 μl of VEGF (30 ng/mL) in starvation media was added to all wells except those containing untreated controls; the final VEGF concentration was 6 ng/mL. Cellular proliferation was quantified 72 hours later by MTT dye reduction, at which time cells were exposed for 4 hours MTT (Promega Corp.). Dye reduction was stopped by addition of a stop solution (Promega Corp.) and absorbance at 595λ was determined on a 96-well spectrophotometer plate reader.
IC50 values were calculated by curve-fitting the response of A^595 to various concentrations of the test agent; typically, seven concentrations separated by 0.5 log were employed, with triplicate wells at each concentration. For screening compound library plates, one or two concentrations (one well per concentration) were employed, and the % inhibition was calculated by the following formula: % inhibition=(control−test)[…](control−starvation) where
control=A^595 when VEGF is present without test agent
test=A^595 when VEGF is present with test agent
starvation=A^595 when VEGF and test agent are both absent.

T2 sequence (P09619 33-1106): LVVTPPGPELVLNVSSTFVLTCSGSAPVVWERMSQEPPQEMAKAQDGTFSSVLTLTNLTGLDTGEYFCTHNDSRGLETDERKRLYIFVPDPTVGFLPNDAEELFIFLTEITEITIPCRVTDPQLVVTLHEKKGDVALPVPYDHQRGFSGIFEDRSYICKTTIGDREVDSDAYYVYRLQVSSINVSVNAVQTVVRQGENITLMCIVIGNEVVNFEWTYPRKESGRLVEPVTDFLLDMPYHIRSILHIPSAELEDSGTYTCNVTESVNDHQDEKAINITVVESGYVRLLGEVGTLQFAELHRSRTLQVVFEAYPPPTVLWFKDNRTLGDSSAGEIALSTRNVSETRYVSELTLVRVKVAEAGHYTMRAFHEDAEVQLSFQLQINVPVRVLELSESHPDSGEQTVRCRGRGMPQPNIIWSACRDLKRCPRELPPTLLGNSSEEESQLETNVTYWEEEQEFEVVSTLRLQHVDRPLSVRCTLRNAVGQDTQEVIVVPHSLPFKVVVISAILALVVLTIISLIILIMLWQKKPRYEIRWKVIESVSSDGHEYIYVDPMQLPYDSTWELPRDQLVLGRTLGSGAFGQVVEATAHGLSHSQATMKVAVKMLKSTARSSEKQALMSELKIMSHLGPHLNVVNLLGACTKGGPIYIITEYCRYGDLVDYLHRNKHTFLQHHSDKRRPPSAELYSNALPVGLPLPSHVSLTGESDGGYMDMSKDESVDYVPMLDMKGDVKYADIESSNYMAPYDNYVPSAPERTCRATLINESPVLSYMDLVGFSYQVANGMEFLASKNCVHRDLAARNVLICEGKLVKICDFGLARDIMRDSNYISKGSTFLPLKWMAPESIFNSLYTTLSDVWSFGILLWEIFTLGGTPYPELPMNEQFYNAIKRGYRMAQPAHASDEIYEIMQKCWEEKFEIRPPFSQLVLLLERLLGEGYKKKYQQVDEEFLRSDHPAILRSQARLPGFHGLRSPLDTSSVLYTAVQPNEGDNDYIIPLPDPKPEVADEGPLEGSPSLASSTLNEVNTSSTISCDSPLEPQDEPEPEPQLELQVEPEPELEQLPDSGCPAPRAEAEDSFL
T3 sequence (P35968 with tags, fused parts or gaps DEL940-989/E990V limits assumed): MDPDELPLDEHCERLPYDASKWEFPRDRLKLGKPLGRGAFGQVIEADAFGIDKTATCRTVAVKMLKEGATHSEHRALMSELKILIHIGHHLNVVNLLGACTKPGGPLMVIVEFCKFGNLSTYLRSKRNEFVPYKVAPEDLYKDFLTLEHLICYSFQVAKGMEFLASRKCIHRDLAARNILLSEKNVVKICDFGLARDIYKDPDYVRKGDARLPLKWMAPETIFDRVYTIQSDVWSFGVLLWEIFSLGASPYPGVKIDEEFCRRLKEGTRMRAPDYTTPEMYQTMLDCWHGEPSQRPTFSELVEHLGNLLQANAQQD
T1 sequence (P11362 456-766 L457V/C488A/C584S): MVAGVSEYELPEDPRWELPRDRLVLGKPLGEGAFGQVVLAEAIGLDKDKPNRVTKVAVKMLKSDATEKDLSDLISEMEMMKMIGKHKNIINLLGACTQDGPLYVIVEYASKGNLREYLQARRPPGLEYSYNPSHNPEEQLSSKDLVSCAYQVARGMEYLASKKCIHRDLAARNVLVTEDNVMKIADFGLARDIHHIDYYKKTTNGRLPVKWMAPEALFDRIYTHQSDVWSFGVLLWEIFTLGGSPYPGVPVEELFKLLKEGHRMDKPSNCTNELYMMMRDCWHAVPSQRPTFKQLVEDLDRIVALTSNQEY

| inhibition at 1 µM [1] [%] | pIC50 [2] | inhibition at 0.05 µM [3] [%] | Structure (SMILES) | pIC50 [4] |
| --- | --- | --- | --- | --- |
| 63 | 8.22 | 80 | C#CCNC(=O)c1ccccc1Nc1ccc2c(/C=C/c3cc(C)cc(C)n3)n[nH]c2c1 [Example 13, N-(prop-2-ynyl)-2-{3-[(E)-2-(2,4-dimethyl-pyridin-2-yl)-vinyl]-1H-indazol-6-ylamino}-benzamide] | – |
| 24 | – | 28 | Cc1ccnc(/C=C/c2n[nH]c3cc(Nc4ccccc4C(=O)NCc4nc5ccccc5n4C)ccc23)c1 [Example 45, N-(1-Methyl-1H-benzoimidazol-2-ylmethyl)-2-{3-[(E)2-(4-methyl-pyridin-2-yl)-vinyl]-1H-indazol-6-ylamino}-benzamide] | – |
| 35 | – | 91 | CC(=O)OCC#CCNC(=O)c1ccccc1Nc1ccc2c(/C=C/c3cc(C)cc(C)n3)n[nH]c2c1 [Example 20, Acetic acid 4-(2-{3-[(E)-2-(4,6-dimethyl-pyridin-2-yl)-vinyl]-1H-indazol-6-ylamino}-benzoylamino)-but-2-ynyl ester] | 10.08 |
| – | 8.35 | 72 | C=C(C)CNC(=O)c1ccccc1Nc1ccc2c(/C=C/c3cc(C)ccn3)n[nH]c2c1 [Example 34, N-(2-Methyl-allyl)-2-{[(E)-2-(4-methyl-pyridin-2-yl)-vinyl]-1H-indazol-6-ylamino}-benzamide] | – |
| 13 | – | 64 | Cc1cc(C)nc(/C=C/c2n[nH]c3cc(Nc4ncccc4C(=O)NCC#CC4CC4)ccc23)c1 [Example 25, N-(3-Cyclopropyl-prop-2-ynyl)-2-{3-[(E)-2-(4,6-dimethyl-pyridin-2-yl)-vinyl]-1H-indazol-6-ylamino}-nicotinamide] | 8.52 |
| 36 | – | 11 | Cc1ccnc(/C=C/c2n[nH]c3cc(Nc4ccccc4C(=O)NCc4nccn4C)ccc23)c1 [Example 49, N-(1-Methyl-1H-imidazol-2-ylmethyl)-2-{3-[2-(4-methyl-pyridin-2-yl)-vinyl]-1H-indazol-6-ylamino}-benzamide] | – |
| 52 | – | 82 | Cc1ccnc(/C=C/c2n[nH]c3cc(Nc4ccccc4C(=O)NCC#CCO)ccc23)c1 [Example 51, 2-{3-[(E)-2-(4-Methyl-pyridin-2-yl)-vinyl]-1H-indazol6-ylamino}-N-(4-hydroxy-but-2-ynyl)-benzamide] | – |
| 76 | 8.33 | 96 | Cc1ccnc(/C=C/c2n[nH]c3cc(Nc4ccccc4C(=O)NCc4cccc(C)n4)ccc23)c1 [Example 39, N-(6-Methyl-pyridin-2-ylmethyl)-2-{3-[2-(4-methyl-pyridin-2-yl)-vinyl]-1H-indazol-6-ylamino}-benzamide] | – |
| 12 | – | 27 | C#CCNC(=O)c1ccccc1Nc1ccc2c(C(=O)NC)n[nH]c2c1 [Example 1(k), 6-(2-Prop-2-ynylcarbamoyl-phenylamino)-1H-indazole-3-carboxylic acid methylamide] | < 8.00 |
| 63 | 8.62 | 85 | C#CCNC(=O)c1ccccc1Nc1ccc2c(/C=N/n3cccc3)n[nH]c2c1 [Example 63, N-Prop-2-ynyl-2-[3-(pyrrol-1-yliminomethyl)-1H-indazol-6-ylamino]-benzamide] | 10.00 |
| 67 | 8.43 | 97 | O=C(NCC#CC1CC1)c1ccccc1Nc1ccc2c(/C=N/n3cccc3)n[nH]c2c1 [Example 55, N-(3-Cyclopropyl-prop-2-ynyl)-2-[3-(pyrrol-1-yliminomethyl)-1H-indazol-6-ylamino]-benzamide] | 9.70 |
| 52 | 8.89 | 91 | O=C(NCC#CCO)c1ccccc1Nc1ccc2c(/C=N/n3cccc3)n[nH]c2c1 [Example 57, N-(4-Hydroxy-but-2-ynyl)-2-[3-(pyrrol-1-yliminomethyl)-1H-indazol-6-ylamino]-benzamide] | > 8.74 |
